# Results from article PMC12977544, “Phenotypic high-throughput screening identifies modulators of gut microbial choline metabolism” (mBio, 2026).
# Assays:
# [1] = test system: conventional C57BL/6 mice; experiment: Serum TMAO in conventional mice after inhibitor treatment; type: in vivo, Mus musculus C57BL/6
# Description: In a biosafety cabinet, a 300 mg/mL stock of sterile inhibitor in filter-sterilized DMSO was prepared. After this preparation, a working solution of 3 mg/mL of the inhibitor stock in sterile 1% hydroxyethyl cellulose/1% polysorbate 80 was prepared within 4 days of gavaging the mice and stored at room temperature. A low dose of the inhibitor was also prepared, using a working solution of 0.3 mg/mL of the inhibitor stock in sterile 1% hydroxyethyl cellulose/1% polysorbate 80. The vehicle was prepared in the same way with DMSO without inhibitor. […] All mice were administered by gavage with 3 mg/kg or 30 mg/kg of the inhibitor once a day (between 6 and 8 a.m.) for three consecutive days. A fecal sample was collected before the first gavage. At sacrifice, tissues collected were blood, cecal contents, a fecal pellet, proximal colon, distal small intestine, liver, and kidney. Mice were anesthetized with isoflurane and underwent cardiac puncture for a terminal blood draw, followed by cervical dislocation. Tissues were snap-frozen in liquid nitrogen. Blood was spun down at 8,000 × g for 8 min at room temperature; the resulting serum layer was removed and snap-frozen. […] […] was used for peak quantification, and internal standards were utilized as a comparison to calculate plasma concentrations. Statistical significance was calculated using an unpaired t-test.
# [2] = test system: germ-free C57BL/6 mice colonized with defined community incl. E. coli MS 200-1; experiment: Serum TMAO in gnotobiotic mice after inhibitor treatment; type: in vivo, Mus musculus C57BL/6
# Description: One milliliter of culture from each of the six individually grown strains was added to create this mixed culture. In a biosafety cabinet, a 300 mg/mL stock of sterile inhibitor in filter-sterilized DMSO was prepared. After this preparation, a working solution of 3 mg/mL of the inhibitor stock in sterile 1% hydroxyethyl cellulose/1% polysorbate 80 was prepared within 4 days of gavaging the mice and stored at room temperature. A low dose of the inhibitor was also prepared, using a working solution of 0.3 mg/mL of the inhibitor stock in sterile 1% hydroxyethyl cellulose/1% polysorbate 80. The vehicle was prepared in the same way with DMSO without inhibitor. […] Two weeks after colonization, mice were administrated by gavage with 3 mg/kg of the inhibitor or vehicle between 6 and 8 a.m. once a day for three consecutive days. After a 10-day washout period, mice were orally administered 30 mg/kg of the inhibitor once a day (same time as above) for three consecutive days, and blood was collected 24 h after the last gavage. A fecal sample was collected before the first gavage. At sacrifice, tissues collected were blood, cecal contents, a fecal pellet, proximal colon, distal small intestine, liver, and kidney. Mice were anesthetized with isoflurane and underwent cardiac puncture for a terminal blood draw, followed by cervical dislocation. Tissues were snap-frozen in liquid nitrogen. Blood was spun down at 8,000 × g for 8 min at room temperature; the resulting serum layer was removed and snap-frozen. All snap-frozen tissues were stored at -80°C until needed. One volume of plasma and 4 volumes of ice-cold extraction solution (HPLC-grade methanol with 2.5 μM d9-TMAO internal standard) were combined and spun at 21,100 × g for 3 min at 4°C. One volume of the resulting supernatant was then mixed with 1 volume of HPLC-grade water. […] was used for peak quantification, and internal standards were utilized as a comparison to calculate plasma concentrations. Statistical significance was calculated using an unpaired t-test.
# [3] = test system: panel of commensal bacterial strains; experiment: MIC against panel of nine gut commensal bacteria; conditions: read-out: MICs against gut commensal panel
smiles,measurement,setting,value
Cc1ccc(-c2cc(C(=O)NCCCCCN3CCCCCC3)c(C)[nH]2)cc1C [Compound 45],Serum TMAO level relative to vehicle treatment,"[1]; 30 mg/kg oral gavage daily for 3 days, 1% choline diet, P = 0.027",about 60 % of vehicle treatment
same,Decrease of serum TMAO levels,"[1]; 30 mg/kg, n = 6, P = 0.027",~ 40%
same,Serum TMAO level relative to vehicle treatment,"[2]; gnotobiotic mice, 30 mg/kg oral gavage daily for 3 days, 1% choline diet, 24 h after last dose, P = 0.054",about 60 % of vehicle treatment
same,Decrease of serum TMAO levels,"[2]; gnotobiotic mice, 30 mg/kg, n = 8, P = 0.054",~ 40%
same,Decrease of TMAO levels compared to vehicle treatment,"[2]; in vivo, mouse model not given",approximately 40%
same,MIC,[3],> 200 µM
